Data taken from patent US20220106304A1, “Transcription Factor BRN2 Inhibitory Compounds as Therapeutics and Methods for Their Use” (The University of British Columbia, priority 2018, published 2022).

Assays:
[1] = system: 42D^ENZR cells vs 16D^CRPC cells; assay: Cell proliferation specificity, 42D^ENZR cells vs 16D^CRPC cells; assay type: cell-based; settings: 42D cells express BRN2, 16D cells do not; some also LNCaP; result in words
Method: Plate 42DENZR (˜7000 cells per well) and 16D^CRPC (˜5000 cells per well) cells in 96 well plate with a volume of 100 μL per well. • 2. Next day 1 mL aliquots of media are combined with 3× the desired concentration of compounds. The aliquots are vortexed and 50 μL of each 3× concentration is added to the 100 μL of media in each well to give the ix desired concentration.
The following are the desired concentrations:
0, 10 nM, 100 nM, 500 nM, 1 μM, 2.5 μM, 5 μM, 10 μM, 15 μM, […], 30 μM. • 3. Approximately 72 hours later, 17 μL of 10% Glutaraldehyde is added to each well and plates are placed on a shaker for 20-30 minutes. • 4. Media is washed off the fixed cells by slow submersion in a container of water. Then the water is removed by tapping the plate upside down. • 5. 75 μL of Crystal Violet™ solution is added into the 96 well plates and placed on a shaker for ˜30 minutes. • 6. Media is washed off the fixed cells by repeated slow submersion in a container of water and the plates are allowed to dry over-night. • 7. Next day, 75 μL of Sorensen Solution is accurately pipetted into each well. The plates placed on a shaker for ˜30 minutes. • 8. Absorbance is measured in the plate at 590 nm.
Compounds that Show Specificity Towards 42D^ENZR Cells Vs 16D^CRPC Cells Progress to Step 4.
(§1) Where data is not available “na” is inserted.

[2] = Liver microsome metabolic stability, MLM; assay type: in vitro ADME; settings: MLM (single value or second of two), 1 μM compound, 0.25 mg/mL protein; for Met Stab % (60 mins HLM/MLM): percent remaining at 60 min, 1 mM NADPH; for half-life at 1 µM: mouse, liver microsomes, pH 7.4, read-out: T1/2 in (mins HLM/MLM)
Method: Potassium phosphate buffer (Kphos) was prepared by adding 0.647 g potassium phosphate monobasic (KH2PO4) and 3.527 g potassium phosphate dibasic ([…]) to 400 mL of Milli-Q water. pH of the buffer was adjusted to 7.4 and volume was made up to 500 mL.
Microsomes (20 mg/mL) were diluted in KH2PO4 buffer to prepare a concentration of 0.357 mg/mL.
Stock solutions of BRN2 inhibitors were prepared in DMSO at a concentration of 1 mM
A stock solution of 3.33 mM NADPH (3.33×) was prepared by dissolving appropriate amount of NADPH in KH2PO4 buffer.
Total Incubation volume: 100 μL
Compound concentration: 1 μM
Protein Concentration: 0.25 mg/mL
An 1120 μL aliquot of Kphos buffer (50 mM, pH 7.4) containing liver microsomes (0.357 mg/mL) were added to individual 2 mL tubes (final concentration 0.25 mg/mL). Test compounds (1 mM) and positive controls were directly spiked into respective tubes to prepare a concentration of 1.428 μM (final concentration 1 μM). From the above mix, 70 μL was added to individual wells of 96 well reaction plates and pre-incubated in a 37° C. water bath for 5 min. All the reactions were initiated by adding 30 μL of 3.33 mM NADPH (final concentration 1 mM). Reactions without NADPH and buffer controls (minus NADPH) at 0 min and 60 min were also incubated to rule out non-NADPH metabolism or chemical instability in the incubation buffer. All reactions were terminated using 100 μL of ice-cold acetonitrile containing internal standard at 0, 5, 15, 30 and 60 min. The plates were centrifuged at 4000 RPM for 15 min and 100 μL aliquots were submitted for analysis by LC-MS/MS.
Samples were monitored for parent compounds disappearance in MRM mode using LC-MS/MS.
The percent remaining of test compounds and positive control in each sample was determined by considering peak area ratio in the 0 minute sample as 100%. The Half-life of compounds in microsomes is calculated by formula:
Half-life (t½) (min)=0.693/k, where k is gradient of line determined from plot of peak area ratio (compound peak area/internal standard peak area) against time.
In vitro intrinsic clearance (CL'int) (units in mL/min/kg) was calculated using the formula.
[formula] • For liver microsomes, scaling factor used was 45 mg microsomal protein per gm liver. • Indicates liver weight (gm) which varies species wise. For mice the liver weights are 90 gm.
as §1

[3] = target: T1, BRN2 (Homo sapiens, UniProt P20265); assay: cell-based; settings: negative = activation; for inhibition at 10 µM: read-out: % BRN2 Inhibition (10 μM), 10 μM compound, 24 hours, 42D^ENZR cells stably expressing BRN2-luciferase reporter; for inhibition at 30 µM: read-out: % BRN2 Inhibition (30 μM), 30 μM compound, 24 hours, 42D^ENZR cells stably expressing BRN2-luciferase reporter
T1 sequence (P20265 1-443): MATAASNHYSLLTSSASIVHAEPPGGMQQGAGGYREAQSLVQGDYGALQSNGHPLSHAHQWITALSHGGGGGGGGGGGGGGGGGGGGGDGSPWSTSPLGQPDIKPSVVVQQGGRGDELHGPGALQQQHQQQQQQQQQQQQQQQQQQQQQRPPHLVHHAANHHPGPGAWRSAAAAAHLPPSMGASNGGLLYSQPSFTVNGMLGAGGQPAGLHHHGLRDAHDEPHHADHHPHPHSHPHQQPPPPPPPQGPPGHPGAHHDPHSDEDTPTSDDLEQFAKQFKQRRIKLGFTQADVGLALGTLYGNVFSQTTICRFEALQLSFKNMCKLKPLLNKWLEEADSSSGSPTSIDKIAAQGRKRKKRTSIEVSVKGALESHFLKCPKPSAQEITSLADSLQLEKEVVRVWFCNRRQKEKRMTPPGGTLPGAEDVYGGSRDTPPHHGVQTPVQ

Row | SMILES | specificity [1] | Met Stab % (60 mins HLM/MLM) [2] [%] | half-life at 1 µM [2] [min] | inhibition at 10 µM [3] [%] | inhibition at 30 µM [3] [%]
1 | Clc1ccc2cc(-c3coc(-c4ccc[nH]4)n3)oc2c1 [VPC-18-127, 4-(6-chlorobenzofuran-2-yl)-2-(1H-pyrrol-2-yl)oxazole] | VPC-18- 127 (specific) | 16 | 22 |  | 
2 | FC(F)(F)c1ccc2cc(-c3csc(-c4ccc[nH]4)n3)oc2c1 [VPC-18-108] | VPC-18- 108 (specific) | 15 | 31 | 84.4 | 92.6
3 | Cn1c(-c2ccc(-c3ccccc3)o2)nc2ccccc21 [VPC-18] | VPC-18 (42D not 16D) |  |  | 97.6 | 99.4
4 | Clc1ccc2cc(-c3csc(-c4ccoc4)n3)oc2c1 [VPC-18-105, 4-(6-chlorobenzofuran-2-yl)-2-(furan-3-yl)thiazole] | VPC-18- 105 (specific 42D not 16D) | 1 | 10 | 79.5 | 92
5 | c1ccc(-n2cc(-c3nc4ccccc4o3)cn2)cc1 [VPC-18-18] | VPC-18-18 (specific- affects 42D but not 16D) |  |  | 82.8 | 87
6 | Clc1ccc2cc(-c3csc(-c4cc[nH]c4)n3)oc2c1 [VPC-18-115] | VPC-18- 115 (specific) | 18 | 22 | 98 | 99
7 | FC(F)(F)c1ccc2cc(-c3nccc(-c4ccc[nH]4)n3)oc2c1 [VPC-18-140, 4-(1H-pyrrol-2-yl)-2-(6-(trifluoromethyl)benzofuran-2-yl)pyrimidine] | VPC-18- 140 (specific) | 2 | 10 |  | 
8 | c1coc(-c2nc(-c3coc4ccccc34)cs2)c1 [VPC-18-81, 4-(benzofuran-3-yl)-2-(furan-2-yl)thiazole] | VPC-18-81 (specific to 42D) | 2 | 11 | 97 | 99
9 | Clc1ccc2cc(-c3nccc(-c4ccc[nH]4)n3)oc2c1 [VPC-18-133, 2-(6-chlorobenzofuran-2-yl)-4-(1H-pyrrol-2-yl)pyrimidine] | VPC-18- 133 (specific) | 1 | 8 |  | 
10 | c1coc(-c2nc(-c3cc4ccccc4o3)cs2)c1 [VPC-18-14] | VPC-18-14 (specific) |  |  | 95.9 | 96.6
11 | Clc1ccc2cc(-c3nccc(-c4ccco4)n3)oc2c1 [VPC-18-141, 2-(6-chlorobenzofuran-2-yl)-4-(furan-2-yl)pyrimidine] | VPC-18- 141 (specific) | 3 | 13 |  | 
12 | Cc1ccc2cc(-c3csc(-c4ccco4)n3)oc2c1 [VPC-18-110, 2-(furan-2-yl)-4-(6-methylbenzofuran-2-yl)thiazole] | VPC-18- 110 (specific) | 1 | 10 | 93.5 | 98.6
13 | FC(F)(F)c1ccc2cc(-c3csc(-c4ccoc4)n3)oc2c1 [VPC-18-104, 2-(furan-3-yl)-4-(6-(trifluoromethyl)benzofuran-2-yl)thiazole] | VPC-18- 104 (specific 42D not 16D) | 1 | 10 | 87.1 | 94.2
14 | Cc1c(-c2csc(-c3ccccn3)n2)oc2ccccc12 [VPC-18-13] | VPC-18-13 (specific) |  |  | 98.3 | 99.9
15 | Cn1cccc1-c1nc(-c2cc3ccc(Cl)cc3o2)cs1 [VPC-18-139, 4-(6-chlorobenzofuran-2-yl)-2-(1-methyl-1H-pyrrol-2-yl)thiazole] | VPC-18- 139 (specific) | 23 | 30 |  | 
